Laboratory results reported in PMC10945556, “Design, Synthesis, and Antifungal Activity of 3-Substituted-2(5H)-Oxaboroles” (ACS Medicinal Chemistry Letters, 2024).

Columns and labels:
A. flavus = assay: MIC, dose-dependent solid media assay; format: cell-based, Aspergillus flavus; conditions: Aspergillus flavus
C. albicans = assay: MIC, microbroth dilution; format: cell-based, Candida albicans; conditions: Candida albicans
P. chrysogenum = assay: MIC, dose-dependent solid media assay; format: cell-based, Penicillium chrysogenum; conditions: Penicillium chrysogenum
P. aeruginosa = assay: MIC, microbroth dilution; format: cell-based, Pseudomonas aeruginosa; conditions: Pseudomonas aeruginosa
E. coli = assay: MIC, microbroth dilution; format: cell-based, Escherichia coli; conditions: Escherichia coli
B. cereus = assay: MIC, microbroth dilution; format: cell-based, Bacillus cereus; conditions: Bacillus cereus
T. mentagrophytes = assay: MIC, dose-dependent solid media assay; format: cell-based, Trichophyton mentagrophytes; conditions: Trichophyton mentagrophytes
Hemolytic assay = format: cell-based; conditions: 50 and 100 μM for 1 h
Protocol: (§1) In general, very little growth inhibition was observed against either Gram-positive or Gram-negative bacterial pathogens. […] The SAR for the antibacterial is dissimilar to that observed for the antifungal properties.
(§2) Figure 3 (A) Cell viability assay against H9c2 cell line at 100 μM for 24 h (normalized to PBS no treatment), (B) Hemolytic assay at 50 and 100 μM for 1 h (normalized to triton X-100 positive control). Error bars in both graphs represent standard error of mean (SEM) of replicates (n = 3).

[1] = test system: rat myoblast cells (H9c2); assay: Cell viability assay against H9c2 cell line; format: cell-based; conditions: concentrations up to 100 μM, 24 h
Protocol: as §1, §2

[2] = test system: Methicillin resistant Staphylococcus aureus; assay: MIC, microbroth dilution; format: cell-based; conditions: Staphylococcus aureus, S. aureus (MRSA)
S. cerevisiae = assay: MIC, microbroth dilution; format: cell-based, Saccharomyces cerevisiae; conditions: Saccharomyces cerevisiae

SMILES | MIC (A. flavus) [mg/L] | MIC (A. flavus; value in parentheses) [µM] | MIC (C. albicans) [mg/L] | MIC (C. albicans; value in parentheses) [µM] | MIC (P. chrysogenum) [mg/L] | MIC (P. chrysogenum; value in parentheses) [µM] | MIC (P. aeruginosa) [mg/L] | MIC (P. aeruginosa; value in parentheses) [µM] | MIC (E. coli) [mg/L] | MIC (E. coli; value in parentheses) [µM] | MIC (B. cereus) [mg/L] | MIC (B. cereus; value in parentheses) [µM] | MIC (T. mentagrophytes) [mg/L] | MIC (T. mentagrophytes; value in parentheses) [µM] | hemolytic activity (Hemolytic assay) | cytotoxic effects against rat myoblast cells (H9c2) [1] | MIC [2] [mg/L] | MIC ([2]; value in parentheses) [µM] | MIC (S. cerevisiae) [mg/L] | MIC (S. cerevisiae; value in parentheses) [µM]
OB1OCC=C1c1ccc2ccccc2c1 [Compound 6q] | > 50 | > 238 | > 50 | > 238 | 12.5 | 59.5 | > 50 | > 238 | > 50 | > 238 | > 50 | > 238 | > 50 | > 238 | none possessed hemolytic activity | none | > 50 | > 238 | > 50 | > 238
OB1OCC=C1c1cccc(Br)c1 [Compound 6i] | 25 | 105 | > 50 | > 210 | 10.4 ± 2 | 43.7 | > 50 | > 210 | > 50 | > 210 | > 50 | > 210 | 25 | 105 | none possessed hemolytic activity | none | > 50 | > 210 | 50 | 210
CC(C)(C)c1ccc(C2=CCOB2O)cc1 [Compound 6w] | > 50 | > 232 | > 50 | > 232 | 12.5 | 57.9 | > 50 | > 232 | > 50 | > 232 | > 50 | > 232 | > 50 | > 232 | none possessed hemolytic activity | none | > 50 | > 232 | > 50 | > 232
Cc1cccc(C2=CCOB2O)c1 [Compound 6u] | 33 ± 8 | 190 | > 50 | > 287 | 25 | 144 | > 50 | > 287 | > 50 | > 287 | > 50 | > 287 | 42 ± 8 | 241 | none possessed hemolytic activity | none | > 50 | > 287 | 21 ± 4 | 121
OB1OCC=C1c1ccccc1Br [Compound 6j] | > 50 | > 210 | > 50 | > 210 | > 50 | > 210 | > 50 | > 210 | > 50 | > 210 | > 50 | > 210 | > 50 | > 210 |  |  | > 50 | > 210 | > 50 | > 210
COc1ccccc1C1=CCOB1O [Compound 6p] | > 50 | > 263 | > 50 | > 263 | > 50 | > 263 | > 50 | > 263 | > 50 | > 263 | > 50 | > 263 | > 50 | > 263 |  |  | > 50 | > 263 | > 50 | > 263
OB1OCC=C1c1ccc2occc2c1 [Compound 6r] | 50 | 250 | > 50 | > 250 | 25 | 125 | > 50 | > 250 | > 50 | > 250 | > 50 | > 250 | 50 | 250 | none possessed hemolytic activity | none | > 50 | > 250 | 5.2 ± 1 | 26
Cc1cc(F)cc(C2=CCOB2O)c1 [Compound 6k] | 42 ± 8 | 219 | > 50 | > 260 | 12.5 | 65.1 | > 50 | > 260 |  | > 260 | > 50 | > 260 | 42 ± 8 | 219 |  |  | > 50 | > 260 | 12.5 | 65.1
OB1OCC=C1c1ccc(OC(F)(F)F)cc1 [Compound 6m] | 50 | 205 | > 50 | > 205 | 12.5 | 51.2 | > 50 | > 205 | > 50 | > 205 | > 50 | > 205 | 50 | 205 |  |  | > 50 | > 205 | 29 ± 11 | 119
OB1OCC=C1c1ccccc1 [Compound 6a] | > 50 | > 313 | > 50 | > 313 | 50 | 313 | > 50 | > 313 | > 50 | > 313 | > 50 | 313 | > 50 | > 313 |  |  | > 50 | > 313 | 6.25 | 39.1
